Activity calls are given as the source filed them.
Experiments:
Mu-type opioid receptor = Mu-type opioid receptor (Homo sapiens, UniProt P35372); test: (§1) Counterscreen for agonists of heterodimerization of the mu 1 (OPRM1) and delta 1 (OPRD1) opioid receptors: Luminescence-based cell-based high throughput dose response assay to identify agonists of OPRM1 homodimerization.; type: functional
[1] = target: Delta-type opioid receptor (Homo sapiens, UniProt P41143); test: as §1, with “of OPRD1” for “of OPRM1”, “homodimerization. [Related pubchem assays (depositor defined):AID504326, AID504355, AID504692, AID504904, AID504905]” for “homodimerization.”; type: functional
Sequence of Delta-type opioid receptor (P41143 whole entry): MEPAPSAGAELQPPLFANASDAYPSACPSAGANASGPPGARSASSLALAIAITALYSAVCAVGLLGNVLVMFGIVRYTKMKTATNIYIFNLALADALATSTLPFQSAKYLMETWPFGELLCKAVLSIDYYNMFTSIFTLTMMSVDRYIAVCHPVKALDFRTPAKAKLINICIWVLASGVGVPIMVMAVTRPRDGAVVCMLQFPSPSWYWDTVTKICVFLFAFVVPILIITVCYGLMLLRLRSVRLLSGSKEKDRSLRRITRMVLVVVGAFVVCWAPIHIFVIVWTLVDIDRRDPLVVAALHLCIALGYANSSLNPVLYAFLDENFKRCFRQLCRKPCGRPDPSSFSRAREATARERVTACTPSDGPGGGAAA

[2] = target: T1, Short transient receptor potential channel 4 (Mus musculus, UniProt Q9QUQ5); test: mouse TRPC4 channel activators, dose response, cell-based, HEK293 TRPC4/mu-opioid, Fluo-4 calcium (AID 434937); type: functional
T1 sequence (Q9QUQ5 whole entry): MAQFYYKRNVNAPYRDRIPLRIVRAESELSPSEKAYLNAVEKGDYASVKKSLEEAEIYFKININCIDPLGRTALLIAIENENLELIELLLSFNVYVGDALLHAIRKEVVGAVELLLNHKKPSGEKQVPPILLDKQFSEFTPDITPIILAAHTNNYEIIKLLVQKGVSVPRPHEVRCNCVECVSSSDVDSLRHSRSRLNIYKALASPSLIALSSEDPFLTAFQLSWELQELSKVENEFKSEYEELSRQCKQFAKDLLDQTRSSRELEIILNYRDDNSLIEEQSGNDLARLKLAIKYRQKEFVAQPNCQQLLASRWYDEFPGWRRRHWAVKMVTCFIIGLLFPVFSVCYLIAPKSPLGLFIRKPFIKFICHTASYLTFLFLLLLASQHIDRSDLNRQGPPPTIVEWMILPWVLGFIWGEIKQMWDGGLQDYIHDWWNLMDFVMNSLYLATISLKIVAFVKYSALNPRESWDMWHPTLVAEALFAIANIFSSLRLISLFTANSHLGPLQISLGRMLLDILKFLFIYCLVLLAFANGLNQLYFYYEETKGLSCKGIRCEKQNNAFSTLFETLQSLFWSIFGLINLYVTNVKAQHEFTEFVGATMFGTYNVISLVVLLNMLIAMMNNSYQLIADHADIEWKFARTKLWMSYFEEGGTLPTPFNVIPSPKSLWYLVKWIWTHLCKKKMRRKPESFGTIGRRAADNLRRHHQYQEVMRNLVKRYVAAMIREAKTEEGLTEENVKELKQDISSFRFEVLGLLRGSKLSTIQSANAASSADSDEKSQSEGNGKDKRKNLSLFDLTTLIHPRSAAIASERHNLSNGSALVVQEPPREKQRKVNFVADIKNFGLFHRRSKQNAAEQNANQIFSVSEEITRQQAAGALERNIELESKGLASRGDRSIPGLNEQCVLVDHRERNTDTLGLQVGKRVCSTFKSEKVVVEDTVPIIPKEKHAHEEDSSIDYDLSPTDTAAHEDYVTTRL

[3] = target: 5-hydroxytryptamine receptor 5A (Homo sapiens, UniProt P47898); test: Counterscreen for agonists of OPRM1-OPRD1 heterodimerization: luminescence-based cell-based high throughput dose response assay to identify agonists of 5-hydroxytryptamine (serotonin) 5A receptor (HTR5A). [Related pubchem assays (depositor defined):AID504326, AID504355, AID504692, AID504904, AID504905]; type: functional
Sequence of 5-hydroxytryptamine receptor 5A (P47898 whole entry): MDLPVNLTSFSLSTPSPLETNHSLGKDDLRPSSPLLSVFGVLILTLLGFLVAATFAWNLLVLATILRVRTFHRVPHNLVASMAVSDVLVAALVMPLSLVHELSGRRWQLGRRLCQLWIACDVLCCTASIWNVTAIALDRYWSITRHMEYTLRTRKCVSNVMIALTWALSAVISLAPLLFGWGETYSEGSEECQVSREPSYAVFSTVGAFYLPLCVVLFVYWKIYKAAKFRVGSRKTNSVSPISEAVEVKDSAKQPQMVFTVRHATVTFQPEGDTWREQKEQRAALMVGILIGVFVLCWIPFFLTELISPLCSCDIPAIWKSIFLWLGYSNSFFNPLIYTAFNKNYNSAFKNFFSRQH

[4] = HepG2 cell cytotoxicity, dose response, cytotoxicity control for Shn3 inhibitor project, CellTiter-Glo, cherry-picked (AID 624134); type: functional, cell-based
cells = type: functional
[5] = Shn3 3'UTR reporter inhibitors, dose response, cell-based, Clone20 osteoblasts, firefly luciferase, cherry-picked (AID 624132); type: functional;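 note: firefly luciferase luminescence from reporter carrying the Shn3 3'UTR in osteoblasts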
[6] = target: T2, High affinity choline transporter 1 (Homo sapiens, UniProt Q9GZV3); test: CHT inhibitors, dose response, cell-based, 5-point CRC, membrane potential dye (AID 504840); type: functional
T2 sequence (Q9GZV3 whole entry): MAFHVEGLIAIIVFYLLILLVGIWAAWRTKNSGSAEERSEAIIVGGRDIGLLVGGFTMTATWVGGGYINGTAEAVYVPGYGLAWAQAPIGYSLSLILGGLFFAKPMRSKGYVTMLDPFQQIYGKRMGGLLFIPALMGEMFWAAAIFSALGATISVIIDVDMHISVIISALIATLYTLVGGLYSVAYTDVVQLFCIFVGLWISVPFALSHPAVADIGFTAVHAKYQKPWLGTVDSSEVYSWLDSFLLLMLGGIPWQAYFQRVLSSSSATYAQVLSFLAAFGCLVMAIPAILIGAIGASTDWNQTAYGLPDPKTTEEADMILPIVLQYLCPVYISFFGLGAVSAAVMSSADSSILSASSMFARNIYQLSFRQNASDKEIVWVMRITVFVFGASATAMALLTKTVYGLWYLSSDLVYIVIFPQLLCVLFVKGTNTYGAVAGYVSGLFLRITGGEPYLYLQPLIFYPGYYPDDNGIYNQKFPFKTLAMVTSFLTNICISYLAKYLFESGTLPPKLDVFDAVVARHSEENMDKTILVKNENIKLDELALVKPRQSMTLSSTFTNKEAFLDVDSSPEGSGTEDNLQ

[7] = control 3'UTR Renilla luciferase suppression, dose response, counter-screen for Shn3 inhibitor project, cell-based, Clone20-Shn3RL, cherry-picked (AID 624133); type: functional
[8] = HepG2 cell cytotoxicity, dose response, cytotoxicity control for non-replicating M. tuberculosis project (AID 489018); type: functional; conditions: Mycobacterium tuberculosis
[9] = Vero E6 cell cytotoxicity, dose response, cytotoxicity control for non-replicating M. tuberculosis project, secondary assay (AID 492998); type: functional, VeroE6; conditions: Vero C1008
[10] = microbe, parasite or virus in culture; type: functional; conditions: Mycobacterium tuberculosis
[11] = target: T3, Microphthalmia-associated transcription factor (Homo sapiens, UniProt O75030); test: TRPM1 promoter luciferase signal decrease, dose response, MITF inhibitor project, cell-based, SK-MEL-5, cherry-picked, set 3 (AID 493073); type: functional
T3 sequence (O75030 whole entry): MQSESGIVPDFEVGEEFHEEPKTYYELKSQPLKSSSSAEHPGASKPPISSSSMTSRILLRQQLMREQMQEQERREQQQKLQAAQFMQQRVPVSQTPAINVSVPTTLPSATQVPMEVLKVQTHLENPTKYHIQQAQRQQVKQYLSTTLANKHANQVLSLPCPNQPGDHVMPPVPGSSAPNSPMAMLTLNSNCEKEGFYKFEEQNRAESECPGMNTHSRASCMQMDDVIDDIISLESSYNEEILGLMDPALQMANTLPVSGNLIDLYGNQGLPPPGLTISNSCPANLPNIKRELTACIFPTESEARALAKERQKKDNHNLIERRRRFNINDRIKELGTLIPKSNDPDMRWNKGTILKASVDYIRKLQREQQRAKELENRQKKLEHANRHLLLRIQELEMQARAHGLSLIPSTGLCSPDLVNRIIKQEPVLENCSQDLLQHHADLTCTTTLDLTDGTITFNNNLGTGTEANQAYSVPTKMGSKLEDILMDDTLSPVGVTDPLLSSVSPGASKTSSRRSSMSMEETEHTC

A-375 = test: A375 melanoma cell viability reduction, dose response, counter-screen for MITF modulator project, cherry-pick samples, set 2 (AID 540335); type: functional, cell-based; conditions: Homo sapiens
[12] = THP-1 cell cytotoxicity, dose response, cytotoxicity control for non-replicating M. tuberculosis project (AID 489025); type: functional
Beta-galactosidase = Beta-galactosidase (Escherichia coli, UniProt Q8VNN2); test: beta-galactosidase enzyme inhibitors and activators, dose response, artefact control for CCR6 antagonist project, biochemical, E. coli enzyme, set 3 (AID 504712); type: functional
Sequence of Beta-galactosidase (Q8VNN2 whole entry): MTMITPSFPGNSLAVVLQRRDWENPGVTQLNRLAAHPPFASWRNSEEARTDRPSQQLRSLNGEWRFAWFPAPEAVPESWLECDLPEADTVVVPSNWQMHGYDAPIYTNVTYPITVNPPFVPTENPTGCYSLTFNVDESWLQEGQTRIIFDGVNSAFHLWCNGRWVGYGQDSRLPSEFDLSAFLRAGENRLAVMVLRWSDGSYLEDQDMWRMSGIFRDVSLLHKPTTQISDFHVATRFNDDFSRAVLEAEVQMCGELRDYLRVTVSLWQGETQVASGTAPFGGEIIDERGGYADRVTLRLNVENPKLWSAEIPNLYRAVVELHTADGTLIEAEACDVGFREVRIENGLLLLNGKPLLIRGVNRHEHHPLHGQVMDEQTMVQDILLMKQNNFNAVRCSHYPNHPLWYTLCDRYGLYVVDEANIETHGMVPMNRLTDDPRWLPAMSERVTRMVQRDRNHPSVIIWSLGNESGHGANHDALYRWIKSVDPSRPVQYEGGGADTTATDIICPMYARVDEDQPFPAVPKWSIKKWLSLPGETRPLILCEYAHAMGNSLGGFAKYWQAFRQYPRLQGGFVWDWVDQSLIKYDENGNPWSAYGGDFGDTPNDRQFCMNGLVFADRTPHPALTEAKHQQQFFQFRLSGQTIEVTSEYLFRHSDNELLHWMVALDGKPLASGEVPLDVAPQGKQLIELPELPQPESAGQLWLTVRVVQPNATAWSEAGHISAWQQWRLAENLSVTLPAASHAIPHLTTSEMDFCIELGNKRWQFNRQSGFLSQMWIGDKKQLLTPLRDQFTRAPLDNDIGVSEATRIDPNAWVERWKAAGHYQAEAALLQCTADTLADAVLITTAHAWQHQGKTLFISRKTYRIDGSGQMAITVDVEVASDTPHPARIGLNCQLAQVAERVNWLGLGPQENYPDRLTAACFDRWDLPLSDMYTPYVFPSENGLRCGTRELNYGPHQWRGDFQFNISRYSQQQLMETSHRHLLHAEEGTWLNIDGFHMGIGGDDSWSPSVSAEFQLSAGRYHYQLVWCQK

[13] = inhibitors of intracellular T. cruzi replication, confirmation, NIH3T3 host cells, beta-gal luminescence (AID 2044); type: functional, cell-based;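 note: intracellular parasites grown in NIH/3T3 mouse fibroblasts as host cells; luminescent beta-galactosidase reporter signal from transgenic T. cruzi replicating inside host cells; inhibitors lower the luminescence signal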
INS1 = test: beta cell apoptosis inhibitors, cytokine rescue, dose response, luminescence, retest (AID 449756); type: functional, cell-based; conditions: Rattus norvegicus;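 note: cell death triggered by IL-1 beta plus TNF-alpha plus IFN-gamma mixture; protective hits raise ATP signal compared with cytokine alone wells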
[14] = target: C-C chemokine receptor type 6 (Homo sapiens, UniProt P51684); test: CCR6 receptor antagonists, dose response, cell-based, luminescent beta-arrestin readout (AID 504728); type: functional
Sequence of C-C chemokine receptor type 6 (P51684 whole entry): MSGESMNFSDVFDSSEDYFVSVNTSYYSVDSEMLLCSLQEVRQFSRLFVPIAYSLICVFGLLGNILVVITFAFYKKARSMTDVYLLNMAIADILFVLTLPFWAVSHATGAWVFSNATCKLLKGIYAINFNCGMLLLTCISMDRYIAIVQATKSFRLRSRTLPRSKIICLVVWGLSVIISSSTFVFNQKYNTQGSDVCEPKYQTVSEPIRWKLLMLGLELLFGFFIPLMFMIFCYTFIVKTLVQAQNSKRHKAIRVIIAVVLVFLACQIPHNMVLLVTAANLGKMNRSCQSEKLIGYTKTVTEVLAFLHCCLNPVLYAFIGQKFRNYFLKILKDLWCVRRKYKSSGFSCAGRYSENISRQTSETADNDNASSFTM

[15] = cytotoxicity toward NIH3T3 fibroblasts, dose response, counter-screen, cell-based, ATP luminescence, mouse fibroblasts (AID 2010); type: functional;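 note: cells exposed to compound for about 90 hours before reading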
[16] = non-specific cell cytotoxicity, dose response, cytotoxicity control for PAX8 inhibitor project, plate reader, dry powder samples (AID 743021); type: functional, cell-based
Paired box protein Pax-8 = Paired box protein Pax-8 (Homo sapiens, UniProt Q06710); test: inhibitors of PAX8-driven TPO luciferase reporter, dose response, RMG-I cells, cherry-pick (AID 687027); type: functional, cell-based;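 note: luciferase reporter driven by Pax8 target thyroperoxidase promoter measured by SteadyGlo luminescence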
Sequence of Paired box protein Pax-8 (Q06710 whole entry): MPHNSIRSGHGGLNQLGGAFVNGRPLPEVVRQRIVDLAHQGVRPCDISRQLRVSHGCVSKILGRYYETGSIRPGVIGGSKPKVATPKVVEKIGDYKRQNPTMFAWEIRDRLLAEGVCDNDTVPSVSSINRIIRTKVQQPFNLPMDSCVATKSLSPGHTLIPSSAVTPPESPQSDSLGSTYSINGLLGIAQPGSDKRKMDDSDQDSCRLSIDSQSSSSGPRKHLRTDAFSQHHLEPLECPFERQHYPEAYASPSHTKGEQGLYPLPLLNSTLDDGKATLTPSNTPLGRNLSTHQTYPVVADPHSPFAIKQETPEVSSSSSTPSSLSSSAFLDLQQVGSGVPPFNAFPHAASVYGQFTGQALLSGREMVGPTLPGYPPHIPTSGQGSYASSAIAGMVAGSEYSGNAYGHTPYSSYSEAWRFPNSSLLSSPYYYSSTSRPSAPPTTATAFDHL

[17] = target: T4, Heat shock factor protein 1 (Mus musculus, UniProt P38532); test: inhibition of MG132-induced HSE-luciferase signal, confirmation, cell-based, NIH3T3, luminescence, dose retest (AID 2382); type: functional;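 note: NIH3T3 fibroblasts with HSF1-driven luciferase reporter stressed by proteasome inhibitor MG132; luminescence from HSF1-driven luciferase expression after 8 hours of MG132 stress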
T4 sequence (P38532 whole entry): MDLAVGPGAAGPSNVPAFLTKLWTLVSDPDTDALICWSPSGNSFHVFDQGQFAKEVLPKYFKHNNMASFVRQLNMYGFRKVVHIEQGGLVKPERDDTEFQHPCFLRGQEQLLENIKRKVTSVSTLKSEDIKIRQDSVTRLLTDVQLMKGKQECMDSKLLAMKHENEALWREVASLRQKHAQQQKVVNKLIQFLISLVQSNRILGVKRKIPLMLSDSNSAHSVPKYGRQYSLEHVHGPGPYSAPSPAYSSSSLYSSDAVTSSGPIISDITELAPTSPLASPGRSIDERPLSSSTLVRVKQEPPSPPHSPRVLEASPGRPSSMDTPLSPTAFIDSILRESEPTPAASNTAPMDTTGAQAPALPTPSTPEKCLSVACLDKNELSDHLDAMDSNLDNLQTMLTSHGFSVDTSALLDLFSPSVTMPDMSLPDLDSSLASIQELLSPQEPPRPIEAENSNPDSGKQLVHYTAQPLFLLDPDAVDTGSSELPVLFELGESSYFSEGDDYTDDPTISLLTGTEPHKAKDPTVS

[18] = Luminescence Cell-Based Dose Retest to Confirm Inhibitors of Cancer Stem Cells. [Related pubchem assays (depositor defined):AID2717, AID2721]; type: functional; conditions: Homo sapiens

Sequence of Mu-type opioid receptor (P35372 whole entry): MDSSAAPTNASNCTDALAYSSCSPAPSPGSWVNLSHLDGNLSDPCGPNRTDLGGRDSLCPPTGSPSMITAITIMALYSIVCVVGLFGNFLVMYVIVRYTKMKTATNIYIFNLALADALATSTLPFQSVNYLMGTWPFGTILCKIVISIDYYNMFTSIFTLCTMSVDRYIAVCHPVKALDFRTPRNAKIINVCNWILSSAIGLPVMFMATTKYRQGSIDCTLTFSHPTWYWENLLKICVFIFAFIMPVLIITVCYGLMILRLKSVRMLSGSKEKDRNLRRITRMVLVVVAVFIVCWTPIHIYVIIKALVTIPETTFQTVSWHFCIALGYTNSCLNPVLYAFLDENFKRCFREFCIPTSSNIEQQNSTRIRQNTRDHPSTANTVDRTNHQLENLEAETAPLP

## COc1ccc(C(CNC(=O)c2ccc(S(=O)(=O)N(C)C)cc2)N(C)C)cc1 (stereo unspecified)
Mu-type opioid receptor
  EC50: > 92.5 µM (inactive)
[1]
  EC50: 85.6 µM (inactive)
[2]
  EC50: 1.5 µM (active)
[3]
  EC50: > 92.5 µM (inactive)

## N=c1n(Cc2ccc(Cl)cc2)c2ccccc2n1CC(O)COc1ccccc1 (stereo unspecified)
[4]
  AC50: 14.2 µM (active)
cells
  IC50: 14.1 µM (active)
[5]
  AC50: 2.34 µM (active)
[6]
  IC50: 15 µM (active)
[7]
  AC50: 3.61 µM (active)
[8]
  CC50: 8.02 µM (active)
[9]
  CC50: 11.8 µM (active)
[10]
  CC50: 11.6 µM (active)
[11]
  AC50: 9.25 µM (active)
A-375
  AC50: 13.9 µM (active)
[12]
  CC50: 11.8 µM (active)

## Cc1ccc(C(=O)N/C(=C\c2ccc(-c3ccc(Br)cc3)o2)C(=O)NCCCN(C)C)cc1
Beta-galactosidase
  IC50: > 66.6 µM (inactive)
[13]
  EC50: 1.56 µM (active)
INS1
  AC50: 7.33 µM (active)
[11]
  AC50: 6.84 µM (active)
A-375
  AC50: 17.7 µM (active)
[14]
  IC50: 24.6 µM (inactive)
[15]
  EC50: > 30 µM (not active)
[16]
  AC50: 61.2 µM (active)
Paired box protein Pax-8
  AC50: 17.4 µM (active)
[17]
  EC50: 24.1 µM (active)
[18]
  AC50: 2.81 µM (active)

— ChEMBL document CHEMBL1201862, “PubChem BioAssay data set” (2004)
